Measured values from patent US20160238590A1, “COMPOSITIONS AND METHODS RELATED TO OAT SENSITIVITY” (IMMUSANT, INC., priority 2013, published 2016).

Columns and labels:
Type in all cases: cell-based, human
[1] = tested on: PBMC; experiment: IFN-γ ELISpot on PBMC of CD patients after 3-day barley challenge; details: after barley challenge
Text: (§1) Australian Caucasian HLA-DQ2.5^+ and/or HLA-DQ8^+ CD subjects were recruited by advertisement in the Coeliac Society of Victoria newsletter and all had biopsy-proven CD conforming to ESPGHAN criteria. Patients had been on strict gluten free diet for at least 4 weeks prior to commencing grain challenge. Patients underwent 3-day grain challenge with oats, barley, or combined wheat, barley, and rye muffins, and 6 days after commencement, blood was collected. Day 0 responses were not observed in the selection of patients tested, as described previously^8.
(§2) Oats challenge consisted of 100 g dry weight daily of one of three commercial brands of oats: one not tested for wheat contamination (Uncle Toby's; Oats #1), and two shown by R5 ELISA to contain less than 20 ppm wheat gluten (Tilquhilie Pudding; Oats #2 and Freedom Food; Oats #3). Barley challenge consisted of pearl barley (Ward McKenzie) cooked into a risotto (150 g dry weight daily) and the wheat challenge consisted of four 50 g slices of wheat bread daily (Baker's Delight white loaf cut to toasting thickness). The combined wheat, barley, and rye challenge consisted of muffins baked with wheat flour (White Wings), barley flour (Four Leaf Milling), and rye flour (Four Leaf Milling; 22-25 g dry weight each daily). A symptom diary based on a […] Likert scale was completed by participants daily from baseline until day 6.
(§3) Two avenin peptide libraries were utilized for epitope screening. These were designed using avenin sequences from GenBank and a customized algorithm, as previously described^9. The initial library consisted of 199 screening-grade 20 mers including all possible 12 mers (Mimotopes). This library was screened with and without tTG pre-treatment. The second library consisted of additional avenin sequences that were synthesized with glutamate substitution at sites predicted to be deamidated by published algorithms^10, 11 removing the requirement for tTG treatment. This library contained 369 screening-grade 20 mers, including all possible 12 mers (Pepscan). The second round avenin library contained wild-type and deamidated versions of the most immunogenic sequences (25 high quality 16 mers from Mimotopes). High quality peptides containing previously described immunogenic sequences from wheat, barley, and rye were used to test for cross-reactivity^8 (Pepscan). High quality hordein and avenin peptides for TCC testing and biochemical studies were ordered from Pepscan, Mimotopes, or GL Biochem.
(§4) Peripheral blood mononuclear cells (PBMC) were isolated from heparinized whole blood using Ficoll-Paque™ Plus density-gradient centrifugation (GE Healthcare). IFN-γ ELISpot (Mabtech) was set up as previously described^8.

[2] = tested on: PBMC; experiment: IFN-γ ELISpot on PBMC of CD patients on day 6 after 3-day oats challenge; details: after 3-day oats challenge
Text: as §1, §2, §3, §4

[3] = tested on: Patient 2 TCC-01; experiment: IFN-γ ELISpot with T cell clone; details: TCC Patient 2 TCC-01 (Table 5); mean no antigen 1.1
Procedure: as §4
(§5) Isolation of TCC from CD patients was carried out as previously described^8. Briefly, CFSE-labeled PBMC were incubated with antigen for 7 days in IMDM supplemented with 5% heat-inactivated pooled human serum (PHS), 2 mM GlutaMAX™, 100 μM MEM non-essential amino acids (both from Gibco, Invitrogen), and 50 μM 2-mercaptoethanol (Sigma). Proliferated cells were single-cell sorted into 96-well plates containing IL-2, IL-4, anti-CD3 mAb, irradiated feeder cells (allogeneic PBMC and JY-EBV). TCC were expanded and maintained in IL-2 and IL-4 and tested for specificity by ELISpot with irradiated HLA-matched PBMC as antigen-presenting cells. Expanded clones were tested for HLA-DQ restriction, TCR Vbeta usage, and with lysine scans to work out minimal epitopes. See Table 1 below for TCC and epitope information.

[4] = tested on: Patient 6 TCC-01; experiment: IFN-γ ELISpot with T cell clone; details: TCC Patient 6 TCC-01 (Table 5); mean no antigen 2
Procedure: as §4, §5

[5] = tested on: Patient 14 TCC-01; experiment: IFN-γ ELISpot with T cell clone; details: TCC Patient 14 TCC-01 (Table 5); mean no antigen 11.3, high background, SFU >25 considered as positive responses
Procedure: as §4, §5

How did the “IFN-γ ELISpot response (raw SFU)” value ([1]; Patient 1, peptide 50 μg/ml) turn out when “AQFDPSEQYQPYPEQQQPIL [avenin library peptide]” was run?
Its value is 35 SFU.

What about the “significant SFU as a percentage of maximal peptide SFU” value (“significant SFU as a percentage” for short) ([1]; Patient 1, peptide 50 μg/ml) of the same sequence?
Its value is “^^ (^^: 10-20%)”.

What about the “IFN-γ ELISpot response (raw SFU)” value ([1]; Patient 2, peptide 50 μg/ml) of the same sequence?
Its value is 159 SFU.

What about the “significant SFU as a percentage” value ([1]; Patient 2, peptide 50 μg/ml) of the same sequence?
The value was “*** (***: >70%)”.

And the “IFN-γ ELISpot response (raw SFU)” value ([1]; Patient 3, peptide 50 μg/ml)?
The value was 24 SFU.

And the “significant SFU as a percentage” value ([1]; Patient 3, peptide 50 μg/ml)?
The value was “^^ (^^: 10-20%)”.

“EQYQPYPEEQPFMQPL [partially deamidated avenin peptide]” was tested. Which “IFN-γ ELISpot response (raw SFU)” value ([2]; patient P1, peptide 1 μg/ml) did it give?
Its value is 1 SFU.

What about the “IFN-γ ELISpot response (raw SFU)” value ([2]; patient P1, peptide 10 μg/ml) of the same sequence?
The value was 1 SFU.

And the “IFN-γ ELISpot response (raw SFU)” value ([2]; patient P1, peptide 100 μg/ml)?
The value was 2 SFU.

And the “IFN-γ ELISpot response (raw SFU)” value ([2]; patient P2, peptide 1 μg/ml)?
The value was 2 SFU.

And the “IFN-γ ELISpot response (raw SFU)” value ([2]; patient P2, peptide 10 μg/ml)?
The value was 0 SFU.

What about the “IFN-γ ELISpot response (raw SFU)” value ([2]; patient P2, peptide 100 μg/ml) of the same sequence?
The value was 27 SFU.

And the “significant SFU as a percentage” value ([2]; patient P2, peptide 100 μg/ml)?
The value was “** (**: 40-70%)”.

What about the “IFN-γ ELISpot response (raw SFU)” value ([2]; patient P3, peptide 1 μg/ml) of the same sequence?
The value was 0 SFU.

And the “IFN-γ ELISpot response (raw SFU)” value ([2]; patient P3, peptide 10 μg/ml)?
The value was 2 SFU.

What about the “IFN-γ ELISpot response (raw SFU)” value ([2]; patient P3, peptide 100 μg/ml) of the same sequence?
The value was 2 SFU.

What about the “IFN-γ ELISpot response (raw SFU)” value ([2]; patient P11, peptide 1 μg/ml) of the same sequence?
Its value is 0 SFU.

And the “IFN-γ ELISpot response (raw SFU)” value ([2]; patient P11, peptide 10 μg/ml)?
The value was 0 SFU.

What about the “IFN-γ ELISpot response (raw SFU)” value ([2]; patient P11, peptide 100 μg/ml) of the same sequence?
Its value is 1 SFU.

What about the “IFN-γ ELISpot response (raw SFU)” value ([2]; patient P12, peptide 1 μg/ml) of the same sequence?
The value was 0 SFU.

And the “IFN-γ ELISpot response (raw SFU)” value ([2]; patient P12, peptide 10 μg/ml)?
The value was 0 SFU.

And the “IFN-γ ELISpot response (raw SFU)” value ([2]; patient P12, peptide 100 μg/ml)?
The value was 0 SFU.

What about the “IFN-γ ELISpot response (raw SFU)” value ([2]; patient P13, peptide 50 μg/ml) of the same sequence?
The value was 0 SFU.

What does the source list for “EQYQPYPEQEQPFVQQQPPF [avenin library peptide]”?
IFN-γ ELISpot response (raw SFU) ([1]; Patient 1, peptide 50 μg/ml): 99 SFU; significant SFU as a percentage of maximal peptide SFU ([1]; Patient 1, peptide 50 μg/ml): * (*: 20-40%); IFN-γ ELISpot response (raw SFU) ([1]; Patient 2, peptide 50 μg/ml): 192 SFU; significant SFU as a percentage of maximal peptide SFU ([1]; Patient 2, peptide 50 μg/ml): *** (***: >70%); IFN-γ ELISpot response (raw SFU) ([1]; Patient 3, peptide 50 μg/ml): 14 SFU; significant SFU as a percentage of maximal peptide SFU ([1]; Patient 3, peptide 50 μg/ml): (^: 5-10%); IFN-γ ELISpot response (raw SFU) [3]: 283 SFU; IFN-γ ELISpot response (raw SFU) [4]: 30 SFU

Which results are given for EQYQPYPEQQPFMQPL [avenin peptide]?
IFN-γ ELISpot response (raw SFU) ([2]; patient P1, peptide 1 μg/ml): 0 SFU; IFN-γ ELISpot response (raw SFU) ([2]; patient P1, peptide 10 μg/ml): 0 SFU; IFN-γ ELISpot response (raw SFU) ([2]; patient P1, peptide 100 μg/ml): 4 SFU; IFN-γ ELISpot response (raw SFU) ([2]; patient P2, peptide 1 μg/ml): 0 SFU; IFN-γ ELISpot response (raw SFU) ([2]; patient P2, peptide 10 μg/ml): 3 SFU; IFN-γ ELISpot response (raw SFU) ([2]; patient P2, peptide 100 μg/ml): 49 SFU; significant SFU as a percentage of maximal peptide SFU ([2]; patient P2, peptide 100 μg/ml): *** (***: >70%); IFN-γ ELISpot response (raw SFU) ([2]; patient P3, peptide 1 μg/ml): 3 SFU; IFN-γ ELISpot response (raw SFU) ([2]; patient P3, peptide 10 μg/ml): 18 SFU; significant SFU as a percentage of maximal peptide SFU ([2]; patient P3, peptide 10 μg/ml): * (*: 20-40%); IFN-γ ELISpot response (raw SFU) ([2]; patient P3, peptide 100 μg/ml): 5 SFU; IFN-γ ELISpot response (raw SFU) ([2]; patient P11, peptide 1 μg/ml): 3 SFU; IFN-γ ELISpot response (raw SFU) ([2]; patient P11, peptide 10 μg/ml): 0 SFU; IFN-γ ELISpot response (raw SFU) ([2]; patient P11, peptide 100 μg/ml): 54 SFU; significant SFU as a percentage of maximal peptide SFU ([2]; patient P11, peptide 100 μg/ml): *** (***: >70%); IFN-γ ELISpot response (raw SFU) ([2]; patient P12, peptide 1 μg/ml): 0 SFU; IFN-γ ELISpot response (raw SFU) ([2]; patient P12, peptide 10 μg/ml): 2 SFU; IFN-γ ELISpot response (raw SFU) ([2]; patient P12, peptide 100 μg/ml): 31 SFU; significant SFU as a percentage of maximal peptide SFU ([2]; patient P12, peptide 100 μg/ml): ** (**: 40-70%); IFN-γ ELISpot response (raw SFU) ([2]; patient P13, peptide 50 μg/ml): 0 SFU; IFN-γ ELISpot response (raw SFU) ([1]; Patient 1, peptide 50 μg/ml): 19 SFU; significant SFU as a percentage of maximal peptide SFU ([1]; Patient 1, peptide 50 μg/ml): (^: 5-10%); IFN-γ ELISpot response (raw SFU) ([1]; Patient 2, peptide 50 μg/ml): 25 SFU; significant SFU as a percentage of maximal peptide SFU ([1]; Patient 2, peptide 50 μg/ml): ^^ (^^: 10-20%); IFN-γ ELISpot response (raw SFU) ([1]; Patient 3, peptide 50 μg/ml): 33 SFU; significant SFU as a percentage of maximal peptide SFU ([1]; Patient 3, peptide 50 μg/ml): * (*: 20-40%)

How did the “IFN-γ ELISpot response (raw SFU)” value ([1]; Patient 1, peptide 50 μg/ml) turn out when “EQYQPYPEQQQPFLQQQPLE [avenin library peptide]” was run?
The value was 25 SFU.

What about the “significant SFU as a percentage” value ([1]; Patient 1, peptide 50 μg/ml) of the same sequence?
The value was “(^: 5-10%)”.

What about the “IFN-γ ELISpot response (raw SFU)” value ([1]; Patient 2, peptide 50 μg/ml) of the same sequence?
Its value is 196 SFU.

And the “significant SFU as a percentage” value ([1]; Patient 2, peptide 50 μg/ml)?
The value was “*** (***: >70%)”.

What about the “IFN-γ ELISpot response (raw SFU)” value ([1]; Patient 3, peptide 50 μg/ml) of the same sequence?
Its value is 24 SFU.

What about the “significant SFU as a percentage” value ([1]; Patient 3, peptide 50 μg/ml) of the same sequence?
The value was “^^ (^^: 10-20%)”.

Which “IFN-γ ELISpot response (raw SFU)” value [5] does the source give for “FPEQPIPEQPQPYP [barley peptide, 1103203A (30-43) [Q232 to E, Q37 to E]]” here?
Its value is 66 SFU.

And the “IFN-γ ELISpot response (raw SFU)” value [3]?
The value was 1 SFU.

What about the “IFN-γ ELISpot response (raw SFU)” value [4] of the same sequence?
The value was 92 SFU.

With “FPEQPVPEQPQPYP [barley peptide, 1103203B (30-43) [Q32 to E, Q37 to E]]” as the sequence, how does the “IFN-γ ELISpot response (raw SFU)” value [5] read?
Its value is 78 SFU.

What about the “IFN-γ ELISpot response (raw SFU)” value [3] of the same sequence?
The value was 2 SFU.

What about the “IFN-γ ELISpot response (raw SFU)” value [4] of the same sequence?
Its value is 99 SFU.

How did the “IFN-γ ELISpot response (raw SFU)” value [5] turn out when “PEQPFPEQPQPYPQQP [barley peptide, AFM77740.1 (25-40) [Q26 to E, Q31 to E]]” was run?
Its value is 66 SFU.

And the “IFN-γ ELISpot response (raw SFU)” value [3]?
Its value is 202 SFU.

And the “IFN-γ ELISpot response (raw SFU)” value [4]?
The value was 73 SFU.
